# Reference: US11466016B2, “Pharmaceutical compounds” (priority 2018, dated 2022)
# Counter-ions that a name gives are not always drawn.
# Molecular target: SHP2 (Homo sapiens (Human), UniProt Q06124)
# Test: SHP2 Biochemical Assay (DiFMUP conversion, pIRS1 activating peptide)
# Settings: not given
# Method: SHP2 activity was monitored by measuring the conversion of the surrogate substrate 6,8-difluoromethylumbelliferyl phosphate (DiFMUP) to the fluorescent product, 6,8-difluoromethylumbelliferone (DiFMU).
# SHP2 was pre-incubated with test compounds and the activating peptide pIRS1 (H2N-LN(pY)IDLDLV-(PEG)8-LST(pY)ASINFQK-amide) for 30 min, prior to addition of the […] (DiFMUP), (Thermo Fisher D6567). […] Rates of reaction were then measured over 30 min by monitoring fluorescence on a BMG Pherastar reader at excitation 360 nm/emission 450 nm. IC50 values were calculated from the normalized dose-response plots using four parameter logistic curve fit.
row,Compound,IC50
1,"Cn1cc2c(Cl)c(-c3c[nH]c4nc(N5[C@@H]6CC[C@H]5[C@H](F)[C@H](N)C6)cnc34)ccc2n1 (racemic) [Example 12, rac-(1S,2R,3R,5R)-8-[7-(4-chloro-2-methyl-2H-indazol-5-yl)-5H-pyrrolo[2,3-b]pyrazin-3-yl]-2-fluoro-8-azabicyclo[3.2.1]octan-3-amine]",15 nM
2,"Cn1cc2c(Cl)c(-c3n[nH]c4nc(N5[C@H]6CC[C@@H]5[C@@H](F)[C@@H](N)C6)c(CO)nc34)ccc2n1 (racemic) [Example 78, rac-{6-[(1R,2S,3S,5S)-3-amino-2-fluoro-8-azabicyclo[3.2.1]octan-8-yl]-3-(4-chloro-2-methyl-2H-indazol-5-yl)-1H-pyrazolo[3,4-b]pyrazin-5-yl}methanol]",15 nM

# Same assay, conditions: DiFMUP substrate, 0.25 μM pIRS1 peptide, 30 min pre-incubation; average where more than one data point; read-out: SHP2 (IC50)
row,Compound,IC50
1,"2-(5-{3-[endo-3-amino-8-azabicyclo[3.2.1]octan-8-yl]-5H-pyrrolo[2,3-b]pyrazin-7-yl}-3,4-dichloro-2H-indazol-2-yl)ethan-1-ol [Example 36]",6 nM
2,"CN(C)c1nc2ccc(-c3n[nH]c4nc(N5C6CCC5[C@@H](F)[C@@H](N)C6)c(CO)nc34)c(Cl)c2s1 (stereo in doubt) [Example 123, {6-[(1S,2S,3S,5R)-3-amino-2-fluoro-8-azabicyclo[3.2.1]octan-8-yl]-3-[7-chloro-2-(dimethylamino)-1,3-benzothiazol-6-yl]-1H-pyrazolo[3,4-b]pyrazin-5-yl}methanol]",9.7 nM
3,"Cc1nc2ccc(-c3n[nH]c4nc(N5C6CCC5[C@@H](F)[C@@H](N)C6)c(C)nc34)c(Cl)c2s1 (stereo in doubt) [Example 146, (1S,2S,3S,5R)-8-[3-(7-chloro-2-methyl-1,3-benzothiazol-6-yl)-5-methyl-1H-pyrazolo[3,4-b]pyrazin-6-yl]-2-fluoro-8-azabicyclo[3.2.1]octan-3-amine]",7.4 nM
4,"Cn1cc2c(Cl)c(-c3c[nH]c4nc(N5[C@@H]6CC[C@H]5C[C@H](CN)C6)cnc34)ccc2n1 [Example 1, 1-[exo-8-[7-(4-chloro-2-methyl-2-indazol-5-yl)-5H-pyrrolo[2,3-b]pyrazin-3-yl]-8-azabicyclo[3.2.1]octan-3-yl]methanamine]",13 nM
5,"Cn1cc2c(Cl)c(-c3c[nH]c4nc(N5[C@@H]6CC[C@H]5C[C@H](N)C6)cnc34)ccc2n1 [Example 2, exo-8-[7-(4-chloro-2-methyl-2H-indazol-5-yl)-5H-pyrrolo[2,3-b]pyrazin-3-yl]-8-azabicyclo[3.2.1]octan-3-amine]",8.1 nM
6,"Cn1cc2c(Cl)c(-c3c[nH]c4nc(N5[C@@H]6CC[C@H]5C[C@@H](N)C6)cnc34)ccc2n1 [Example 3, endo-8-[7-(4-chloro-2-methyl-2H-indazol-5-yl)-5H-pyrrolo[2,3-b]pyrazin-3-yl]-8-azabicyclo[3.2.1]octan-3-amine]",10 nM
7,"Cn1cc2c(Cl)c(-c3c[nH]c4nc(N5CCC(N)CC5)cnc34)ccc2n1 [Example 4, 1-[7-(4-chloro-2-methyl-2H-indazol-5-yl)-5H-pyrrolo[2,3-b]pyrazin-3-yl]piperidin-4-amine]",16 nM
8,"Cn1cc2c(Cl)c(-c3c[nH]c4nc(N5CCC(C)(N)CC5)cnc34)ccc2n1 [Example 5, 1-[7-(4-chloro-2-methyl-2H-indazol-5-yl)-5H-pyrrolo[2,3-b]pyrazin-3-yl]-4-methylpiperidin-4-amine]",18 nM
9,"Cn1cc2c(Cl)c(-c3c[nH]c4nc(N5[C@@H]6CCC[C@H]5C[C@@H](N)C6)cnc34)ccc2n1 [Example 6, endo-9-[7-(4-chloro-2-methyl-2H-indazol-5-yl)-5H-pyrrolo[2,3-b]pyrazin-3-yl]-9-azabicyclo[3.3.1]nonan-3-amine]",9 nM
10,"Cn1cc2c(Cl)c(-c3c[nH]c4nc(N5CCC(N)(CO)CC5)cnc34)ccc2n1 [Example 7, {4-amino-1-[7-(4-chloro-2-methyl-2H-indazol-5-yl)-5H-pyrrolo[2,3-6]pyrazin-3-yl]piperidin-4-yl}methanol]",23 nM
11,"Cn1cc2c(Cl)c(-c3c[nH]c4nc(N5[C@@H]6CC[C@H]5C[C@@](C)(N)C6)cnc34)ccc2n1 [Example 8, endo-8-[7-(4-chloro-2-methyl-2H-indazol-5-yl)-5H-pyrrolo[2,3-b]pyrazin-3-yl]-3-methyl-8-azabicyclo[3.2.1]octan-3-amine, methanesulfonic acid salt]",17 nM
12,"Cn1cc2c(Cl)c(-c3c[nH]c4nc(N5C6CCC5CNC6)cnc34)ccc2n1 [Example 9, 4-chloro-5-(3-{3,8-diazabicyclo[3.2.1]octan-8-yl}-5H-pyrrolo[2,3-b]pyrazin-7-yl)-2-methyl-2H-indazole]",26 nM
13,"Cn1cc2c(Cl)c(-c3c[nH]c4nc(N5CCC6(CC5)CNC6)cnc34)ccc2n1 [Example 10, 7-[7-(4-chloro-2-methyl-2H-indazol-5-yl)-5H-pyrrolo[2,3-b]pyrazin-3-yl]-2,7-diazaspiro[3.5]nonane]",14 nM
14,"Cc1nc2c(-c3ccc4nn(C)cc4c3Cl)c[nH]c2nc1N1CCC(C)(CN)CC1 [Example 11, 1-{1-[7-(4-chloro-2-methyl-2H-indazol-5-yl)-2-methyl-5H-pyrrolo[2,3-b]pyrazin-3-yl]-4-methylpiperidin-4-yl]methanamine, dihydrochloride salt]",43 nM
15,"N[C@H]1C[C@H]2CC[C@@H](C1)N2c1cnc2c(-c3ccc4ncsc4c3Cl)c[nH]c2n1 [Example 13, endo-8-[7-(7-chloro-1,3-benzothiazol-6-yl)-5H-pyrrolo[2,3-b]pyrazin-3-yl]-8-azabicyclo[3.2.1]octan-3-amine, methanesulfonic acid salt]",6.2 nM
16,"Cc1nc2c(-c3ccc4nn(C)cc4c3Cl)c[nH]c2nc1N1CCC(C)(N)CC1 [Example 14, 1-[7-(4-chloro-2-methyl-2H-indazol-5-yl)-2-methyl-5H-pyrrolo[2,3-b]pyrazin-3-yl]-4-methylpiperidin-4-amine]",89 nM
17,"Cc1nc2ccc(-c3c[nH]c4nc(N5[C@@H]6CC[C@H]5C[C@@H](N)C6)cnc34)c(Cl)c2s1 [Example 15, endo-8-[7-(7-chloro-2-methyl-1,3-benzothiazol-6-yl)-5H-pyrrolo[2,3-b]pyrazin-3-yl]-8-azabicyclo[3.2.1]octan-3-amine, methanesulfonic acid salt]",5.9 nM
18,"Cn1cc2c(Cl)c(-c3c[nH]c4nc(N5CCC6(CCN6)CC5)cnc34)ccc2n1 [Example 16, 7-[7-(4-chloro-2-methyl-2H-indazol-5-yl)-5H-pyrrolo[2,3-b]pyrazin-3-yl]-1,7-diazaspiro[3.5]nonane]",24 nM
19,"Cc1nc2c(-c3ccc4nn(C)cc4c3Cl)c[nH]c2nc1N1[C@@H]2CC[C@H]1C[C@@H](N)C2 [Example 17, endo-8-[7-(4-chloro-2-methyl-2H-indazol-5-yl)-2-methyl-5H-pyrrolo[2,3-b]pyrazin-3-yl]-8-azabicyclo[3.2.1]octan-3-amine]",20 nM
20,"CN(C)c1nc2ccc(-c3c[nH]c4nc(N5[C@@H]6CC[C@H]5C[C@@H](N)C6)cnc34)c(Cl)c2s1 [Example 18, 6-{3-[endo-3-amino-8-azabicyclo[3.2.1]octan-8-yl]-5H-pyrrolo[2,3-b]pyrazin-7-yl}-7-chloro-N,N-dimethyl-1,3-benzothiazol-2-amine, hydrochloride salt]",13 nM
21,"N[C@H]1C[C@H]2CC[C@@H](C1)N2c1cnc2c(-c3ccc4oc(=O)[nH]c4c3Cl)c[nH]c2n1 [Example 19, 5-{3-[endo-3-amino-8-azabicyclo[3.2.1]octan-8-yl]-5H-pyrrolo[2,3-b]pyrazin-7-yl}-4-chloro-2,3-dihydro-1,3-benzoxazol-2-one, hydrochloride salt]",47 nM
22,"Cc1nc2c(-c3ccc4nn(C)cc4c3Cl)c[nH]c2nc1N1[C@@H]2CC[C@H]1C[C@H](N)C2 [Example 20, exo-8-[7-(4-chloro-2-methyl-2H-indazol-5-yl)-2-methyl-5H-pyrrolo[2,3-b]pyrazin-3-yl]-8-azabicyclo[3.2.1]octan-3-amine]",10 nM
23,"Cc1nc2ccc(-c3c[nH]c4nc(N5[C@@H]6CC[C@H]5C[C@@H](N)C6)cnc34)c(Cl)c2c(=O)[nH]1 [Example 21, 6-{3-[endo-3-amino-8-azabicyclo[3.2.1]octan-8-yl]-5H-pyrrolo[2,3-b]pyrazin-7-yl}-5-chloro-2-methyl-3,4-dihydroquinazolin-4-one]",11 nM
24,"CN(C)c1ccc2ccc(-c3c[nH]c4nc(N5[C@@H]6CC[C@H]5C[C@@H](N)C6)cnc34)c(Cl)c2n1 [Example 22, 7-{3-[endo-3-amino-8-azabicyclo[3.2.1]octan-8-yl]-5H-pyrrolo[2,3-b]pyrazin-7-yl}-8-chloro-N,N-dimethylquinolin-2-amine, hydrochloride salt]",26 nM
25,"N[C@H]1C[C@H]2CC[C@@H](C1)N2c1cnc2c(-c3ccc4[nH]c(=O)sc4c3Cl)c[nH]c2n1 [Example 23, 6-{3-[endo-3-amino-8-azabicyclo[3.2.1]octan-8-yl]-5H-pyrrolo[2,3-b]pyrazin-7-yl}-7-chloro-2,3-dihydro-1,3-benzothiazol-2-one, hydrochloride salt]",5.2 nM
26,"Cn1nc2ccc(-c3c[nH]c4nc(N5[C@@H]6CC[C@H]5C[C@@H](N)C6)cnc34)c(Cl)c2c1Cl [Example 24, endo-8-[7-(3,4-dichloro-2-methyl-2H-indazol-5-yl)-5H-pyrrolo[2,3-b]pyrazin-3-yl]-8-azabicyclo[3.2.1]octan-3-amine, methanesulfonic acid salt]",4.3 nM
27,"Cn1cc2c(Cl)c(-c3c[nH]c4nc(N5CCC6(CNC6)C(F)(F)C5)cnc34)ccc2n1 [Example 25, 7-[7-(4-chloro-2-methyl-2H-indazol-5-yl)-5H-pyrrolo[2,3-b]pyrazin-3-yl]-5,5-difluoro-2,7-diazaspiro[3.5]nonane, hydrochloride salt]",52 nM
